Read-outs that look alike come from different tables or passages of the source.
What was measured:
Sprague Dawley rats [1] = assay: radiotelemetry heart rate and blood pressure after single oral dose; type: in vivo, rat
Protocol: To identify equi-efficacious doses of GSK2181236A and BAY 60-4552, heart rate and blood pressure were monitored in male Sprague Dawley (SD) rats (∼500g, n = 4–6 per group) via surgically implanted radiotelemetry transmitters (PhysioTel PA-C40, Data Sciences International, St. Paul, MN, USA). Following oral gavage dosing (0.03–3.0 mg/kg), hemodynamic data were recorded every 5 min for 10 s and then averaged every hour.

SHR-SP isolated aorta [2] = assay: vasoactivity of SHR-SP isolated aorta (ND, HSFD and after chronic treatment); design: species or system rat
Protocol: (§1) In separate studies, endothelial function was assessed following chronic (7 week) BAY 60-4552 or GSK2181236A treatment in SHR-SP on HSFD. SHR-SP fed either normal or HSFD served as controls. Rats were anesthetized and thoracic aorta were isolated and treated with KCl and phenylephrine as described above. Cumulative concentration-response curves to phenylephrine were obtained by adding 0.5 log unit increments (1 nM to 3 μM). Following several washes with KHB, each vessel was contracted to equilibrium with 0.3 μM phenylephrine and tone was reversed by adding cumulative amounts of carbachol at 0.5 log unit intervals (10 nM to 30 μM). Following several KHB washes, the tissues were again contracted to equilibrium with 0.3 μM phenylephrine and tone was reversed by adding cumulative amounts of SNP at 0.5 log unit intervals (0.1 nM to 3 μM). In separate tissues from both the normal and HSFD SHR-SP control groups, the direct vasodilatory effects of BAY 60-4552 and GSK2181236A were investigated. Contractile tone induced by 0.3 μM phenylephrine was reversed by adding cumulative concentrations of BAY 60-4552 or GSK2181236A to the tissue baths at log increments (0.1 nM to 10 μM).

SHR-SP isolated aorta [3] = assay: direct vasodilatory effects in aorta isolated from ND and HSFD SHR-SP; design: species or system rat; conditions: for EC50: read-out: EC50, direct vasodilation
Protocol: as §1

Sprague Dawley rats [4] = assay: myocardial ischemia/reperfusion injury; type: in vivo, rat; conditions: for circulating levels of cardiac troponin I (cTnI) / infarct size as a percentage of the area at risk: acute p.o. 2 h prior to ischemia, GSK2181236A 0.1 and 1.0 mg/kg, BAY 60-4552 0.3 and 3 mg/kg, 24 h reperfusion
Protocol: This study was performed at CV Dynamics, Inc. (Newark, NJ, USA). Male SD rats were obtained from Charles River Laboratories, Inc. (Kingston, NY, USA). At 2 months of age, rats were pre-medicated with atropine (0.04 mg/kg IM) then anesthetized with a loading dose of pentobarbital sodium (65 mg/kg IP). A supplemental dose of pentobarbital sodium (16.3 mg/kg IP) was administered 30–40 min after the initial anesthesia. Marcaine (0.025–0.05 mg/rat IM) was administered locally for pain control, and anesthetized rats were subjected to a thoracotomy at the fourth intercostal space. The left descending coronary artery was occluded using a 5-0 silk snare for 30 min, followed by reperfusion for 24 h. The coronary occlusion and reperfusion were verified by visual inspection (color change of myocardium from pale to pink) and by EKG monitoring [ST elevation and widening of the QRS; Gould BioTACH ECG module (Valley View, OH, USA) with a Tektronix TDS 220 monitor (Beaverton, OR, USA)]. A 2% lidocaine solution (2–3 mg/kg) was dripped directly onto the heart as needed for arrhythmia control during ischemia, and procainamide (12.5 mg/kg IP) was administered 15 min prior to reperfusion.
Rats were orally gavaged with vehicle (0.5% HPMC, 5% DMSO, and 0.1% Tween 80; 10 mL/kg; n = 14), GSK2181236A (0.1 or 1.0 mg/kg; n = 11–14), or BAY 60-4552 (0.3 or 3.0 mg/kg; n = 10–12) 2 h prior to ischemia. Blood was collected at the initiation of ischemia and after 24 h reperfusion. Plasma was obtained for analysis of compound concentrations and levels of cardiac Troponin I (cTnI), a circulating biomarker of cardiac injury. Plasma concentrations of cTnI were determined using a commercially available ELISA (catalog #2010-2-HSP, Life Diagnostics, West Chester, PA, USA) according to the manufacturer’s instructions. Plasma compound concentrations were determined by LC/MS/MS (API 5000 triple quadrupole mass spectrometer, ABSciex, Foster City, CA, USA; Prominence liquid chromatographic system, Shimadzu, Columbia, MD, USA). Rats were anesthetized with a mixture of ketamine and xylazine (35 and 5 mg/kg, IM) and euthanized via exsanguination. Hearts were excised and perfused with 1% Evans blue dye in saline then perfused-fixed with 10% neutral buffered formalin (∼90 mmHg perfusion pressure). Hearts were sliced on the short axis from apex to base at 1–2 mm intervals, and the ischemic area (area at risk) was evaluated using Image Pro-Plus (Media Cybernetics, Inc., Bethesda, MD, USA). Fresh heart slices were stained with 1% triphenyltetrazolium and evaluated using Image Pro-Plus for determination of infarct size.

[5] = HSFD + 0.1 mg/kg chronic treatment
[6] = HSFD + 1 mg/kg chronic treatment
[7] = HSFD + 0.3 mg/kg chronic treatment
[8] = HSFD + 3 mg/kg chronic treatment

Cc1cc(-c2ccc(OC(F)(F)F)cc2)ccc1COc1ccccc1-c1cccc(-n2ncc(C(=O)O)c2C(F)(F)F)n1 [GSK2181236A, 1-(6-{2-[({3-methyl-4′-[(trifluoromethyl)oxy]-4-biphenylyl}methyl)oxy]phenyl}-2-pyridinyl)-5-(trifluoromethyl)-1H-pyrazole-4-carboxylic acid]
lowering of mean arterial pressure (MAP) (Sprague Dawley rats [1]; high dose): 5–10 mmHg
potency on heart rate and blood pressure, more potent than BAY 60-4552 (Sprague Dawley rats [1]; rat, in vivo): ~3 fold
doses that increased heart rate and reduced blood pressure (Sprague Dawley rats [1]; single p.o. dose): ≥ 0.3 mg/kg
highest no-effect dose on heart rate and blood pressure (Sprague Dawley rats [1]; single p.o. dose): 0.1 mg/kg
Carbachol Emax in aorta of chronically treated rats (SHR-SP isolated aorta [2]; [5]): 48 ± 14 % reversal of PE tone
Phenylephrine Emax in aorta of chronically treated rats (SHR-SP isolated aorta [2]; [5]): 93 ± 8 % KCl
Sodium nitroprusside Emax in aorta of chronically treated rats (SHR-SP isolated aorta [2]; [5]): 111 ± 3 % reversal of PE tone
Carbachol Emax in aorta of chronically treated rats (SHR-SP isolated aorta [2]; [6]): 59 ± 4 % reversal of PE tone
Phenylephrine Emax in aorta of chronically treated rats (SHR-SP isolated aorta [2]; [6]): 91 ± 8 % KCl
Sodium nitroprusside Emax in aorta of chronically treated rats (SHR-SP isolated aorta [2]; [6]): 100 ± 2 % reversal of PE tone
EC50 (SHR-SP isolated aorta [3]; Rattus norvegicus, aorta from HSFD SHR-SP): 321 ± 168 nM
EC50 (SHR-SP isolated aorta [3]; Rattus norvegicus, aorta from ND SHR-SP): 270 ± 70 nM
Emax, direct vasodilation (SHR-SP isolated aorta [3]; aorta from HSFD SHR-SP): 110 ± 7 % vasodilation
Emax, direct vasodilation (SHR-SP isolated aorta [3]; aorta from ND SHR-SP): 110 ± 3 % vasodilation
mortality rate (Sprague Dawley rats [4]; 0.1 mg/kg p.o., due to anesthesia): 1 of 15
mortality rate (Sprague Dawley rats [4]; 1 mg/kg p.o., arrhythmia during occlusion and unknown cause during reperfusion): 2 of 13
circulating levels of cardiac troponin I (cTnI) (Sprague Dawley rats [4]): did not significantly alter
infarct size as a percentage of the area at risk (Sprague Dawley rats [4]): did not significantly alter

COC(=O)Nc1c(N)nc(-c2nn(Cc3ccccc3F)c3ncccc23)nc1N [BAY 60-4552]
potency on heart rate and blood pressure, less potent than GSK2181236A (Sprague Dawley rats [1]; rat, in vivo): approximately threefold
highest no-effect dose on heart rate and blood pressure (Sprague Dawley rats [1]; single p.o. dose): 0.3 mg/kg
Carbachol Emax in aorta of chronically treated rats (SHR-SP isolated aorta [2]; [7]): 54 ± 6 % reversal of PE tone
Phenylephrine Emax in aorta of chronically treated rats (SHR-SP isolated aorta [2]; [7]): 88 ± 6 % KCl
Sodium nitroprusside Emax in aorta of chronically treated rats (SHR-SP isolated aorta [2]; [7]): 98 ± 5 % reversal of PE tone
Carbachol Emax in aorta of chronically treated rats (SHR-SP isolated aorta [2]; [8]): 67 ± 6 % reversal of PE tone
Phenylephrine Emax in aorta of chronically treated rats (SHR-SP isolated aorta [2]; [8]): 89 ± 7 % KCl
Sodium nitroprusside Emax in aorta of chronically treated rats (SHR-SP isolated aorta [2]; [8]): 112 ± 3 % reversal of PE tone
Emax, direct vasodilation (SHR-SP isolated aorta [3]; aorta from HSFD SHR-SP): 111 ± 2 % vasodilation
EC50 (SHR-SP isolated aorta [3]; aorta from HSFD SHR-SP): 54 ± 14 nM
Emax, direct vasodilation (SHR-SP isolated aorta [3]; aorta from ND SHR-SP): 110 ± 2 % vasodilation
EC50 (SHR-SP isolated aorta [3]; aorta from ND SHR-SP): 75 ± 16 nM
mortality rate (Sprague Dawley rats [4]; 0.3 mg/kg p.o., arrhythmia and trauma during occlusion): 2 of 12
mortality rate (Sprague Dawley rats [4]; 3 mg/kg p.o., cardiac puncture and trauma): 2 of 14
circulating levels of cardiac troponin I (cTnI) (Sprague Dawley rats [4]): did not significantly alter
infarct size as a percentage of the area at risk (Sprague Dawley rats [4]): did not significantly alter

From article PMC3389674, “Comparison of Soluble Guanylate Cyclase Stimulators and Activators in Models of Cardiovascular Disease Associated with Oxidative Stress” (Frontiers in Pharmacology, 2012)
